Laboratory results as given in patent US20090062208A1, “Methods for maintaining blood-brain barrier integrity in hypertensive subjects using a delta-PKC inhibitor” (priority 2007, published 2009).

Legend:
[1] = system: Dahl salt-sensitive (DS) rats; test: Hypertension-induced stroke in Dahl salt-sensitive rats on high-salt diet (blood pressure, stroke incidence); type: in vivo, rat; settings: hypertensive DS rats; for blood pressure: subcutaneous infusion by osmotic minipump, versus control TAT peptide
Method: (§1) As detailed in Example 1, Dahl salt-sensitive (DS) rats, which are a model for hypertension in humans, were used to evaluate the efficacy of δPKC inhibitor treatment. The animals were initially maintained on a low-salt (0.3% NaCl) diet then switched to a high-salt (8% NaCl) to induce hypertension. The rats were subcutaneously treated with either a saline solution, a control peptide (TAT, SEQ ID NO:85), or a δPKC peptide inhibitor. Blood pressure was measured bi-weekly and blood-brain barrier (BBB) disruption was assessed at the end of the treatment period. Proteomic analysis of brain samples was carried out to identify differences in the brains of control TAT peptide and δV1-1-treated animals.
Male Dahl salt-sensitive (DS) rats were maintained on a low-salt (0.3% NaCl) diet until 6 weeks of age. The animals were then switched to a high-salt (8% NaCl) diet until 15 weeks of age. The animals were monitored daily for symptoms of systemic hypertension.
(§2) The rats were subcutaneously infused (i.e., treated) with a saline solution, a control TAT peptide (YGRKKRRQRRR, SEQ ID NO:85), or the peptide inhibitor δV1-1 (SFNSYELGSL, SEQ ID NO: 1) attached via an N-terminal disulfide bond to TAT peptide (YGRKKRRQRRR-CC-SFNSYELGSL, SEQ ID NO:89), at a rate of 5.0 μL/hour, using an osmotic minipump. Treatment began at 11 weeks of age and survival rate and neurological deficits were recorded through week 15. Blood pressure was measured bi-weekly and blood-brain barrier disruption was assessed at 13 weeks by measuring Evans Blue dye extravasation. Proteomic analysis of brain samples was carried out to identify differences in the brains of control TAT peptide and δV1-1-treated animals. Blood brain barrier-related proteins were evaluated by immunoblot analysis.

[2] = system: zonula occludens 1 (ZO-1), and occludin; test: Immunoblot analysis of blood brain barrier-related proteins; type: in vivo, rat; settings: hypertensive DS rats
Method: as §2

[3] = system: transferrin and actin; test: Proteomic analysis of brain samples; type: in vivo, rat; settings: brain samples taken at 13 weeks of age, continuous administration
Method: as §1
as §2, with “Proteomic analysis of brain samples was carried out to identify differences in the brains of control TAT peptide and δV1-1-treated animals.” left out

[4] = system: blood-brain barrier; test: Blood-brain barrier disruption by Evans Blue dye extravasation; type: in vivo, rat; settings: hypertensive DS rats, at 13 weeks, n=6, p<0.01
Method: as §1
as §2, with “Proteomic analysis of brain samples was carried out to identify differences in the brains of control TAT peptide and δV1-1-treated animals.” left out

[5] = system: middle cerebral arteries; settings: DS rats; Payne and Smeda 2002; cited from earlier work

Compound | incidence of stroke (and stroke-associated symptoms) ([1]; relative to the TAT control group, n=24, p<0.01) | blood pressure ([1]; listed as δPKC inhibitor) | blood pressure ([1]; listed as δV1-1 peptide) | hypertension-induced redistribution of tight junction-related proteins ZO-1 and occludin [2] | increased levels of transferrin and actin in brain samples [3] | Evans Blue extravasation into the brain parenchyma [4] | middle cerebral artery constriction in response to elevated blood pressure [5]
YGRKKRRQRRR-CC-SFNSYELGSL [δV1-1] | significantly decreased | similar | identical | blocked | attenuated | reduced | 
bisindolylmaleimide |  |  |  |  |  |  | inhibited constriction
COc1ccc2c(c[n+](C)c3c4cc5c(cc4ccc23)OCO5)c1OC [chelerythrine] |  |  |  |  |  |  | inhibited constriction
